The source of these data is US20230220001A1, “METHOD FOR SYNTHESIS OF THIOETHER-[…]” ([…] RESEARCH GMBH, priority 2020, published 2023).

The target of data set [1] is T1, RNA Polymerase II (Homo sapiens, UniProt P24928).
T1 construct: HeLaScribe® Nuclear extract in vitro transcription system (Promega, #E3092); host or cells: HeLa nuclear extract (purchased)
Description: RNA Polymerase II assay (HeLaScribe nuclear extract in vitro transcription system, RT-PCR quantification of mRNA). Format: biochemical. Particulars: for residual RNAP II activity at highest concentration tested: highest concentration tested (range up to 1×10^−6 M). The protocol:
(§1) Cytotoxicity of compounds of the invention was assessed using an RNA Polymerase II inhibition assay and by assessing cytotoxicity in a cell viability assay on HEK cells and HEK-OATP1 B3 cells, the results of which are depicted in Table 6.
The in vitro RNA Pol II assay was done using a HeLaScribe® Nuclear extract in vitro transcription system (Promega, #E3092) was used to compare the inhibitory effect of amanitin analogues on RNA Pol at seven concentrations from 6.4×10^−11 M to 1×10^−6 M (serial 1:5 dilutions). As positive control, template run-off transcripts from a CMV immediate early promoter were used (Promega, #E3092). Reverse transcription was followed by real time-PCR for the quantification of the mRNA product. RNA detection was performed using a QuantiFast Probe RT-PCR Plus Kit (Qiagen). The PCR product was monitored by determination of fluorescence on a Real Time PCR CFX Connect Real Time System (Bio-Rad Laboratories Inc.). α-amanitin, analogues and untreated control were each analyzed in triplicates. Negative control, positive control and no target control were analyzed in duplicates. The ACT method was used to calculate the inhibitory effect of the test item on transcription normalized to the untreated control.

The test system of data set [2] is OATP1B3. Description: Cell viability assay (BrdU incorporation) on HEK293-OATP1B3 cells overexpressing OATP1B3. Format: cell-based. To be noted: human, HEK293-OATP1B3 cells (overexpress OATP1B3), 96 h drug exposure, read-out: Cytotoxicity on HEK-OATP1B3 cells EC50. As for the experimental part: as §1
(§2) Cell Viability Assay (HEK and HEK-OATP1B3 Cells)
(§3) The in vitro toxicity of the inventive compounds was determined in Human embryonic kidney HEK293 cells and in HEK293-OATP1B3 cells that overexpress the organic anion-transporting polypeptide […] (OATP1B3) to assess whether OATP1 B3 mediates active transport of amanitin analogues into the cell. Wildtype HEK293 (ATCC, Manassas, Va.) and HEK293-OATP1 B3 cells (see: Pahl et al., Cytotoxic Payloads for Antibody-Drug Conjugates In: Amatoxins as RNA Polymerase II Inhibiting Antibody-Drug Conjugate (ADC) Payloads CHAPTER 19, The Royal Society of Chemistry 2019, ISBN: 978-1-78801-077-1, or e.g. Bowman et al. Drug Metab Dispos 48:18-24, January 2020) were incubated with compound 7f (α-amanitin) or the compounds as disclosed in Table 6. Cytotoxicity was determined by a BrdU assay. HEK293 and HEK-OATP1B3 cells were plated at 2.5×10^3 cells/well in a 1:1 mixture of Ham's F12 with DMEM containing 10% charcoal-stripped FCS onto poly-D-lysine-coated 96-well plates and grown for 24 hours. Subsequently, cells were incubated with amanitin derivatives at 8 different concentrations (1×10^−6 M to 1.28×10^−11 M, serial 1:5 dilutions). Following 96 h of drug exposure, cell viability was determined by a BrdU incorporation assay (Cell Proliferation ELISA, BrdU, Roche) and chemiluminescence was measured using a FLUOstar Optima plate reader (BMG LABtech). Data analysis was performed with GraphPad Prism 9.0 (GraphPad Software, Inc., La Jolla, Calif.) software to plot curve fits.

A short description of data set [3]: Cell viability assay (BrdU incorporation) on HEK293 cells. The class given is cell-based. To be noted: human, wildtype HEK293 cells, 96 h drug exposure, read-out: Cytotoxicity on HEK-293 cells EC50. The protocol: as §1, §2, §3
The conditions of data set [4]: slow acting toxin; T. Wieland 1986; cited from earlier work.

Starred links: 1 amine or outer side, 2 acyl side, 3 side chain; linkers in the order of their positions; H or OH if unused. Positions of bridges follow the written chain, without caps; N, C: chain ends. Non-standard residues stand in square brackets, D forms with d. Residues, ends and D or L forms follow the SMILES beside them. Trp(2-yl) = O=C([C@H](Cc1c([*:3])[nH]c2ccccc12)N[*:1])[*:2]; Ile(4R-OH,5-OH) = C[C@H]([C@H](N)C(=O)O)[C@@H](O)CO; Pro(4,4-F2) = O=C(O)[C@@H]1CC(F)(F)CN1; Hyp = O=C(O)[C@@H]1C[C@@H](O)CN1; Tle = CC(C)(C)[C@H](N)C(=O)O; Aze = O=C(O)[C@@H]1CCN1; Ac3c = NC1(C(=O)O)CC1; Aib = CC(C)(N)C(=O)O; Sar = CNCC(=O)O

For `CC[C@H](C)[C@@H]1NC(=O)CNC(=O)[C@@H]2Cc3c([nH]c4ccccc34)SC[C@H](NC(=O)CNC1=O)C(=O)N[C@@H](CC(N)=O)C(=O)N1C[C@H](O)C[C@H]1C(=O)N[C@@H]([C@@H](C)[C@@H](O)CO)C(=O)N2` [Compound 7d] (cyclo(CN[Hyp][Ile(4R-OH,5-OH)][Trp(2-yl)]GIG); thioether 1-5), the IC50 in data set [1] is 6.8 nM. Further, the EC50 at 96 h in data set [2] is 0.23 nM; in data set [3], 81 nM.

`CC[C@H](C)[C@@H]1NC(=O)CNC(=O)[C@@H]2Cc3c([nH]c4cc(O)ccc34)[S@+]([O-])C[C@H](NC(=O)CNC1=O)C(=O)N[C@@H](CC(N)=O)C(=O)N1C[C@H](O)C[C@H]1C(=O)N[C@@H]([C@@H](C)[C@@H](O)CO)C(=O)N2` [Compound 7f, Alpha-amanitin, reference compound] gave an IC50 in data set [1] of 2.7 nM. In addition, the LD50 in data set [4] was 0.05 to 0.1 mg/kg. Moreover, the EC50 at 96 h in data set [2] came out at 5.2 nM; in data set [3], 210 nM.

Turning to `CC[C@H](C)[C@@H]1NC(=O)CNC(=O)[C@@H]2Cc3c([nH]c4ccccc34)SC[C@H](NC(=O)[C@H]3CCCN3C1=O)C(=O)N[C@@H](CC(N)=O)C(=O)N1C[C@H](O)C[C@H]1C(=O)N[C@@H]([C@@H](C)[C@@H](O)CO)C(=O)N2` [Compound 7i] (cyclo(CN[Hyp][Ile(4R-OH,5-OH)][Trp(2-yl)]GI[dP]); thioether 1-5), in data set [1], the IC50 is 12 nM and the “residual RNAP II activity at highest concentration tested” value (“residual RNAP II activity” for short) amounted to 20%. Moreover, in data set [2], the 50% effective concentration (EC50) at 96 h came to 210 nM. The EC50 at 96 h in data set [3] is more than 1000 nM.

`CC[C@H](C)[C@@H]1NC(=O)CNC(=O)[C@@H]2Cc3c([nH]c4ccccc34)SC[C@H](NC(=O)CN(C)C1=O)C(=O)N[C@@H](CC(N)=O)C(=O)N1C[C@H](O)C[C@H]1C(=O)N[C@@H]([C@@H](C)[C@@H](O)CO)C(=O)N2` [Compound 7l] (cyclo(CN[Hyp][Ile(4R-OH,5-OH)][Trp(2-yl)]GI[Sar]); thioether 1-5) registered an IC50 in data set [1] of 15 nM. The “residual RNAP II activity” value in data set [1] stood at 10%. Moreover, the EC50 at 96 h in data set [2] is 29 nM; in data set [3], more than 1000 nM.

Take `CC[C@H](C)[C@@H]1NC(=O)CNC(=O)[C@@H]2Cc3c([nH]c4ccccc34)SC[C@H](NC(=O)C(C)(C)NC1=O)C(=O)N[C@@H](CC(N)=O)C(=O)N1C[C@H](O)C[C@H]1C(=O)N[C@@H]([C@@H](C)[C@@H](O)CO)C(=O)N2` [Compound 7m] (cyclo([Aib]CN[Hyp][Ile(4R-OH,5-OH)][Trp(2-yl)]GI); thioether 2-6): in data set [1], half-maximal inhibition (IC50) was put at 71 nM and the “residual RNAP II activity” value was 15%. For the same compound, the EC50 at 96 h in data set [2] was 120 nM. The EC50 at 96 h in data set [3] is more than 1000 nM.

Regarding `CC[C@H](C)[C@@H]1NC(=O)CNC(=O)[C@@H]2Cc3c([nH]c4ccccc34)SC[C@H](NC(=O)CNC1=O)C(=O)N[C@@H](CC(N)=O)C(=O)N1CC[C@H]1C(=O)N[C@@H]([C@@H](C)[C@@H](O)CO)C(=O)N2` [Compound 7n] (cyclo([Aze][Ile(4R-OH,5-OH)][Trp(2-yl)]GIGCN); thioether 3-7), in data set [1], it took 160 nM to reach half-maximal inhibition (IC50) and the “residual RNAP II activity” value amounted to 40%. In addition, the EC50 at 96 h in data set [2] was more than 100 nM. The EC50 at 96 h in data set [3] was more than 1000 nM.

Regarding `CC[C@H](C)[C@@H]1NC(=O)CNC(=O)[C@@H]2Cc3c([nH]c4ccccc34)SC[C@H](NC(=O)[C@@H](C)NC1=O)C(=O)N[C@@H](CC(N)=O)C(=O)N1C[C@H](O)C[C@H]1C(=O)N[C@@H]([C@@H](C)[C@@H](O)CO)C(=O)N2` [Compound 7o] (cyclo(CN[Hyp][Ile(4R-OH,5-OH)][Trp(2-yl)]GI[dA]); thioether 1-5), in data set [1], the IC50 is 1.4 nM. The EC50 at 96 h in data set [2] is 28 nM; in data set [3], more than 1000 nM.

In turn, `C[C@H]([C@@H]1NC(=O)[C@@H]2C[C@@H](O)CN2C(=O)[C@H](CC(N)=O)NC(=O)[C@@H]2CSc3[nH]c4ccccc4c3C[C@H](NC1=O)C(=O)NCC(=O)N[C@@H](C(C)(C)C)C(=O)NCC(=O)N2)[C@@H](O)CO` [Compound 7p] (cyclo(CN[Hyp][Ile(4R-OH,5-OH)][Trp(2-yl)]G[Tle]G); thioether 1-5) showed an IC50 in data set [1] of 25 nM. For the same compound, the EC50 at 96 h is 16 nM in data set [2] and more than 1000 nM in data set [3].

Turning to `CC[C@H](C)[C@@H]1NC(=O)CNC(=O)[C@@H]2Cc3c([nH]c4ccccc34)SC[C@H](NC(=O)CNC1=O)C(=O)N[C@@H](CC(N)=O)C(=O)N1CC(F)(F)C[C@H]1C(=O)N[C@@H]([C@@H](C)[C@@H](O)CO)C(=O)N2` [Compound 7q] (cyclo(CN[Pro(4,4-F2)][Ile(4R-OH,5-OH)][Trp(2-yl)]GIG); thioether 1-5), the IC50 in data set [1] was 110 nM. Besides, the “residual RNAP II activity” value in data set [1] stood at 10%. For the same compound, the EC50 at 96 h in data set [2] was 49 nM; in data set [3] it was more than 1000 nM.

With `CC[C@H](C)[C@@H]1NC(=O)CNC(=O)[C@@H]2Cc3c([nH]c4ccccc34)SC[C@H](NC(=O)C3(CC3)NC1=O)C(=O)N[C@@H](CC(N)=O)C(=O)N1C[C@H](O)C[C@H]1C(=O)N[C@@H]([C@@H](C)[C@@H](O)CO)C(=O)N2` [Compound 7r] (cyclo([Ac3c]CN[Hyp][Ile(4R-OH,5-OH)][Trp(2-yl)]GI); thioether 2-6), in data set [1], the IC50 is 26 nM. Further, the EC50 at 96 h in data set [2] is 10 nM; in data set [3], more than 1000 nM.
